Laboratory results as given in patent publication US20080045534A1, “Derivatives of 1,3-diamino benzene as potassium channel modulators” (Valeant Pharmaceuticals North America, priority 2006, published 2008).

Biological target: T1, KCNQ 2/3 (Rattus norvegicus, UniProt O88943+O88944)
T1 construct: endogenous in cells; host or cells: PC-12 cells differentiated with NGF-7s
Assay: rubidium (Rb+) efflux assay in NGF-differentiated PC-12 cells
Format: cell-based
Conditions: concentration for 50% of maximal Rb+ efflux, depolarization buffer (15 mM KCl), 10 min at room temperature
Protocol: Compounds of this invention formula were evaluated as KCNQ 2/3 modulators by measuring rhubidium release in the following assay.
Methods: PC-12 cells were grown at 37° C. and 5% CO2 in DMEM/F12 Medium supplemented with 10% horse serum, 5% fetal bovine serum, 2 mM glutamine, 100 U/ml penicillin, 100 U/ml streptomycin. They were plated in poly-D-lysine-coated 96-well cell culture microplates at a density of 40,000 cells/well and differentiated with 100 ng/ml NGF-7s for 2-5 days. For the assay, the medium was aspirated and the cells were washed once with 0.2 ml in wash buffer (25 mM Hepes, pH 7.4, 150 mM NaCl, 1 mM MgCl2, 0.8 mM NaH2PO4, 2 mM CaCl2). The cells were then loaded with 0.2 ml Rb^+ loading buffer (wash buffer plus 5.4 mM […], 5 mM glucose) and incubated at 37° C. for 2 h. Attached cells were quickly washed three times with buffer (same as Rb^+ loading buffer, but containing 5.4 mM KCl instead of RbCl) to remove extracellular Rb^+. Immediately following the wash, 0.2 ml of depolarization buffer (wash buffer plus 15 mM KCl) with or without compounds was added to the cells to activate efflux of potassium ion channels. After incubation for 10 min at room temperature, the supernatant was carefully removed and collected. Cells were lysed by the addition of 0.2 ml of lysis buffer (depolarization buffer plus 0.1% Triton X-100) and the cell lysates were also collected. If collected samples were not immediately analyzed for Rb^+ contents by atomic absorption spectroscopy (see below), they were stored at 4° C. without any negative effects on subsequent Rb^+ analysis.
The concentration of Rb^+ in the supernatants (Rb^+Sup) and cell lysates (Rb^+Lys) was quantified using an ICR8000 flame atomic absorption spectrometer (Aurora Biomed Inc., Vancouver, B.C.) under conditions defined by the manufacturer. One 0.05 ml samples were processed automatically from microtiter plates by dilution with an equal volume of Rb^+ sample analysis buffer and injection into an air-acetylene flame. The amount of Rb^+ in the sample was measured by absorption at 780 nm using a hollow cathode lamp as light source and a PMT detector. A calibration curve covering the range 0-5 mg/L Rb^+ in sample analysis buffer was generated with each set of plates. The percent Rb^+ efflux (F) was defined by
F=[Rb^+Sup/(Rb^+Sup+Rb^+Lys)]×100%.
The effect (E) of a compound was defined by:
where the Fc is the efflux in the presence of compound in depolarization buffer, Fb is the efflux in basal buffer, and Fs is the efflux in depolarization buffer, and. The effect (E) and compound concentration relationship was plotted to calculate an EC50 value, a compound's concentration for 50% of maximal Rb^+ efflux. Legend: A: EC50<50 nM; B: EC50=50 nM-200 nM; C: EC50=200 nM-1.0 μM; D: EC50=1.0 μM-10 μM; E: EC50>10 μM

Row | Compound | EC50 [nM]
1 | Cc1ccc(NCc2ccc(C(F)(F)F)cc2)c(C)c1NC(=O)CCC1CCCC1 | < 50
2 | Cc1ccc(NCc2ccc(F)cc2)c(C)c1NC(=O)CC(C)(C)C | 50 to 200
3 | CCc1c(NCc2ccc(F)cc2)ccc(C)c1NC(=O)CC(C)(C)C | 50 to 200
4 | COc1ccc(NCc2ccc(F)cc2)c(C)c1NC(=O)CCC1CCCC1 | 50 to 200
5 | Cc1ccc(NCc2ccc(C(F)(F)F)cc2)c(C)c1NC(=O)CC(C)(C)C | 200 to 1000
6 | Cc1c(NCc2ccc(F)cc2)cccc1NC(=O)CC(C)(C)C | 50 to 200
7 | Cc1c(NC(=O)CC(C)(C)C)cccc1N1CCOCC1 | > 10000
8 | COc1ccc(N2CCOCC2)c(C)c1NC(=O)CC(C)(C)C | 1000 to 10000
9 | CC(C)(C)CC(=O)Nc1cc(N2CCOCC2)c(F)cc1F | 1000 to 10000
10 | CC(C)(C)CC(=O)Nc1ccc(F)c(N2CCOCC2)c1 | > 10000
11 | Cc1cc(Cl)c(N2CCOCC2)cc1NC(=O)CC(C)(C)C | 1000 to 10000
12 | Cc1ccc(N2CCc3ccccc3C2)cc1NC(=O)CC(C)(C)C | 200 to 1000

More lines, now with the values ahead:

Row | EC50 [nM] | Compound
13 | < 50 | Cc1ccc(NCc2ccc(F)cc2)c(C)c1NC(=O)CCC1CCCC1
14 | < 50 | CCc1ccc(NCc2ccc(F)cc2)c(CC)c1NC(=O)CCC1CCCC1
15 | 50 to 200 | CCc1ccc(NCc2ccc(F)cc2)c(C)c1NC(=O)CC(C)(C)C
16 | 200 to 1000 | Cc1ccc(NCc2ccc(F)cc2)cc1NC(=O)CC(C)(C)C
17 | 50 to 200 | Cc1ccc(NCc2ccc(F)cc2)c(Cl)c1NC(=O)CC(C)(C)C
18 | 1000 to 10000 | Cc1ccc(NC(=O)CC(C)(C)C)cc1N1CCOCC1
19 | > 10000 | Cc1ccc(N2CCOCC2)cc1NC(=O)CC(C)(C)C
20 | 1000 to 10000 | Cc1ccc(N2CCOCC2)c(C)c1NC(=O)CC(C)(C)C
21 | 1000 to 10000 | Cc1c(N2CCOCC2)ccc(F)c1NC(=O)CC(C)(C)C
